The values below come from paper PMC8200237, “New Oxaliplatin-Pyrophosphato Analogs with Improved In Vitro Cytotoxicity” (Molecules, 2021).

Read-outs that look alike come from different tables or passages of the source.

In data set [1] the test system is PC3 human prostate cancer cells. Description: MTT cell viability assay, PC3. The following applies: MTT test, 72 h; read-out: IC50 (µM) ± S.D. PC3. In kind it is cell-based. On the procedure:
(§1) The in vitro cytotoxicity of the Pt-pyrophosphato complexes (1, 2, 3, and 4) was evaluated on a panel of human cancer cell lines and compared to that of cisplatin and oxaliplatin. Cell lines representative of colon (HCT-116), prostate (PC3), breast (MDA-MB231), and […] (OV2008) carcinomas were included.
(§2) The number of living cells was evaluated by the 3-(4,5-dimethylthiazol-2-yl)-2,5-diphenyltetrazolium bromide (MTT) assay. Briefly, HCT116 human colon cancer cells, PC3 human prostate cancer cells, OV2008 human ovarian cancer cells, and MDA MB 231 human breast cancer cells were plated in 96-well plates at a density of ~5000 cells/well. After one day of incubation at 37 °C in a humid atmosphere with 5% CO2, the culture medium was replaced with 100 µL of fresh medium (control cells) or medium containing different concentrations of the test compounds in the range 1.56–100 µM. Untreated cells were used as positive controls. After the incubation period of 72 h, 10 µL of a 0.5% (w/v) MTT/PBS solution was added to each well and the incubation was prolonged for a further 2 h. After this period, the medium was removed and replaced with 100 µL of DMSO. The absorbance of each well was measured by a microplate reader (Wallac Victor3, 1420 Multilabel Counter, Perkin-Elmer, Singapore). Each compound concentration was tested in triplicate, and results were presented as percentage of the control value. IC50 values were calculated using non-linear regression in GraphPad Prism 5.01 (San Diego, CA, USA). […]
(§3) Table S1. In vitro cytotoxicitya […]
(§4) aCells (3–5·10^3 cells […]) were treated for 72 h with increasing concentrations of the tested compounds. Cytotoxicity was assessed by the MTT test. IC50 values were calculated by the four parameter logistic model (p < 0.05). S.D. = standard deviation. OXP = oxaliplatin, CDDP = cisplatin.
On the technique in general: Tetrazolium assays rely on reduction of a dye to a coloured formazan, in cell work by metabolically active cells.

In data set [2] the test system is OV2008 human cervical cancer cells. Put plainly: MTT cell viability assay, OV2008. The format is cell-based. The following applies: MTT test, 72 h; read-out: IC50 (µM) ± S.D. OV2008. How it is done:
as §1, §2, §3, §4

Data set [3] relates to HCT116 human colon cancer cells. Put plainly: MTT cell viability assay, HCT116. In kind it is cell-based. As to conditions: MTT test, 72 h; read-out: IC50 (µM) ± S.D. HCT116. How it is done:
as §1, §2, §3, §4

The conditions of data set [4]: cited from earlier work.
Data set [5] deals with MDA MB 231 human breast cancer cells. Description: MTT cell viability assay, MDA MB 231. As to conditions: MTT test, 72 h; read-out: IC50 (µM) ± S.D. MDAMB231. In kind it is cell-based. On the procedure:
as §1, §2, §3, §4

The conditions of data set [6]: cited from earlier work. The source holds these as a separate data set.
Data set [7] has as its system panel of four human cancer cell lines. Description: MTT cytotoxicity, average over the four cell lines. The format is cell-based. As to conditions: average over HCT116, PC3, OV2008, MDAMB231; MTT test, 72 h; read-out: IC50 (µM) ± S.D. Average. How it is done: as §1
From this point of view, oxaliplatin represents a better reference compound, with the bidentate oxalato ligand being more similar to the bidentate pyrophosphato ligand.
as §2, §3, §4

Data set [8] is described as follows: Stability in physiological conditions by 31P NMR (pH 7.4). The format is physicochemical. The following applies: D2O, HEPES buffer 50 mM, pH 7.4, 120 mM NaCl, 37 °C. On the procedure: To investigate the stability of 1 and 2 in physiological-like conditions, their solutions in D2O containing HEPES buffer (50 mM, pH = 7.4) and NaCl (120 mM) were monitored at 37 °C by ^31P NMR spectroscopy. […] However, overall, also compound 2 can be considered stable for the time necessary to perform the in vitro cytotoxicity tests (72 h, see following section).
(§5) The stability of compounds 1 and 2 at 37 °C in buffered solutions was assessed by ^31P NMR spectroscopy. Each compound (~2 mg) was dissolved in 0.8 mL of D2O containing 50 mM 4-(2-hydroxyethyl)-1-piperazineethanesulfonic acid) (HEPES) buffer (pH* = 7.4 or pH* = 6.5) and 120 mM NaCl. The resulting solutions were transferred into NMR tubes and maintained at 37 °C. ^31P NMR spectra were recorded from time to time over a period of one month.

A short description of data set [9]: Stability in acidic environment by 31P NMR (pH* 6.5). The format is physicochemical. The following applies: D2O, HEPES buffer 50 mM, pH* 6.5, 120 mM NaCl, 37 °C. How it is done: To simulate the acidic environment surrounding cancer tissues, the stability of 1 and 2 was also investigated at pH* = 6.5 and 37 °C by ^31P NMR spectroscopy.
as §5

A short description of data set [10]: 31P NMR chemical shift/pH titration, acidity constants. In kind it is physicochemical. The following applies: D2O, 31P NMR titration; for pKa1 (first inflection point, pH*): first deprotonation step; for pKa2 (second inflection point, pH*): second deprotonation of coordinated pyrophosphate. How it is done: The pH titration of complexes 1 and 2 was carried on by recording ^31P NMR spectra at different pH* values (Figure 5).
Acidity constants for complexes 1 and 2 were determined by ^31P NMR chemical shift/pH titrations. Either compound 1 or 2 (0.0047 mmol) was dissolved in 0.550 mL of D2O and transferred into an NMR tube. The pH* of the sample was adjusted to the required value by addition of DClO4 (10, 1.0, 0.5, 0.1, or 0.05 M) or NaOD (1.0, 0.5, 0.1, or 0.05 M) solutions, and the pH* value was measured by using a 3 mm diameter electrode for NMR tubes. No control of the ionic strength was performed. The pH titration curves were fitted to the Henderson−Hasselbalch equation using the program KaleidaGraph (version 3.5, Synergy Software, Reading, PA, USA).

Data set [11] relates to HCT116 cells. Put plainly: Annexin V/PI apoptosis assay by flow cytometry. In kind it is cell-based, human. On the procedure:
In order to obtain information on tumor cells’ death, the Annexin V/propidium iodide (PI) assay was used in flow cytometry analyses. Annexin V provides a very sensitive method for detecting cellular apoptosis, while PI is commonly used to detect necrotic or late apoptotic cells (when positive to Annexin too). The FITC Annexin V staining was carried out after 24 and 48 h of incubation of HCT116 cells with the Pt-pyrophosphato complexes (1–4) or oxaliplatin/cisplatin (used as reference compounds) at the IC50 concentrations (Supplementary Materials, Table S1). The two-dimensional dot plots can be divided into four quadrants, corresponding to: (i) viable cells, which are negative to both probes (lower left quadrant; PI/FITC −/−), (ii) early apoptotic cells, which are PI-negative and Annexin V-positive (lower right quadrant; PI/FITC −/+), (iii) late apoptotic cells, which are Annexin- and PI-positive (upper right quadrant; PI/FITC +/+), and (iv) necrotic cells, which are PI-positive and Annexin-negative (upper left quadrant; PI/FITC +/−).
The Annexin V/PI assay was conducted as previously described in order to investigate the mechanism of cell death induced by the various compounds on HCT116 cells. […]
For orientation: A flow cytometer gives signals particle by particle.

The conditions of data set [12]: free pyrophosphate, cited from earlier work.

By IC50 is commonly meant the midpoint of a concentration-inhibition curve. For the compound `O=P1(O)OP(=O)(O)[O][Pt]2([NH]C3CCC(CC3)[NH]2)[O]1` (stereo not drawn) [Compound 4, [Pt(dihydrogenpyrophosphato)(cis-1,4-DACH)]], the IC50 turned out to be 100 ± 5 µM in [1]; 46 ± 5 µM in data set [2]; 44 ± 3 µM in data set [3]; 100 ± 7 µM in [5]; 72 ± 7 µM in data set [7]. In data set [4], the pKa1 is given as 2.03. In addition, the pKa2 in data set [4] was 4.47. The “stability in physiological conditions” value in [6] is recorded as “quite stable”.
With `NC1CC=CCC1N.O=P1(O)[O][Pt][O]P(=O)(O)O1` (racemic) [Compound 2, [Pt(dihydrogenpyrophosphato)(1,2-DACHEX)]], the figures for the “time at which a small 31P NMR signal of free pyrophosphate is first observed” value in [8] and in data set [9] were 120 h and 96 h, respectively. The IC50 in data set [1] stood at 100 ± 6 µM; in [2], 30 ± 3 µM; in [3], 20 ± 2 µM; in data set [5], 39 ± 4 µM; in [7], 47 ± 6 µM. Besides, the “pKa1 (first inflection point, pH*)” value in data set [10] is given as 2.02. Further, the “pKa2 (second inflection point, pH*)” value in data set [10] is reported as 4.23.
As to `O=P1([O-])OP(=O)([O-])[O][Pt]2([NH]C3CCCC(C3)[NH]2)[O]1.[Na+].[Na+]` (stereo not drawn) [Compound 1, Na2[Pt(pyrophosphato)(cis-1,3-DACH)]], the figures for the “time at which a small 31P NMR signal of free pyrophosphate is first observed” value in [8] and in data set [9] were 672 h and 168 h, respectively. Moreover, the half-inhibitory concentration (IC50) was found to be 29 µM in [1]; 15 ± 2 µM in [2]; 21 ± 2 µM in data set [3]; 26 ± 3 µM in data set [5]; 23 µM in data set [7]. Moreover, the “pKa1 (first inflection point, pH*)” value in [10] turned out to be 2.28. The “pKa2 (second inflection point, pH*)” value in data set [10] amounted to 4.55.
Turning to `[NH2][Pt]([NH2])([Cl])[Cl]` [CDDP, cisplatin, reference compound], the IC50 in data set [1] came to 9 ± 3 µM; in [2], 4 ± 1 µM; in [3] it was 9 ± 2 µM; in data set [5], 2 ± 1 µM; in [7] it was 6 µM.
On to `O=C1[O][Pt]2([NH][C@@H]3CCCC[C@H]3[NH]2)[O]C1=O` [OXP, oxaliplatin], for which the IC50 came to 100 ± 5 µM in data set [1]; 54 ± 4 µM in data set [2]; 72 µM in data set [3]; 93 ± 6 µM in data set [5]; 80 µM in data set [7].
For the compound `N[C@@H]1CCCC[C@H]1N.O=P([O-])(O)OP(=O)([O-])O.[Pt+2]` [Compound 3, [Pt(dihydrogenpyrophosphato)(1R,2R-DACH)], reference compound], the IC50 in data set [1] was 100 ± 8 µM; in [2], 29 ± 5 µM; in [3], 19 ± 4 µM; in data set [5], 91 ± 5 µM; in data set [7], 60 ± 8 µM. In addition, the “% viable cells (lower left quadrant, PI-/Annexin V-)” value in data set [11] was found to be 84.912%. Besides, the pKa1 in data set [4] is 2.06. In addition, the pKa2 in [4] is recorded as 4.40. Also, the “stability in physiological conditions” value in [6] was “quite stable”.
Turning to `O=P(O)(O)OP(=O)(O)O` [Pyrophosphate], the pKa1 in data set [12] (tetrabasic acid) is reported as 0.85. In data set [12], the pKa2 is given as 1.49, the pKa3 is listed as 5.77 and the pKa4 is recorded as 8.22.
